Results from patent US10322110B2, “Imidazole-based antimicrobial agents” (priority 2014, dated 2019).
≈ marks a conversion by molar mass, not a printed value. Like-named read-outs stand apart in the source and are kept apart here.

What was measured:
[1] = system: Streptococcus pneumoniae (Chester, ATCC49619); assay: broth microdilution MIC assay, Streptococcus pneumoniae; assay type: cell-based; conditions: MIC100 class score, 24 h
[2] = system: Staphylococcus aureus MSSA (Newman); assay: broth microdilution MIC assay, Staphylococcus aureus MSSA (Newman); assay type: cell-based; conditions: for Antibacterial activity Staphylococcus aureus (MSSA): MIC100 class score, broth microdilution; for MIC: Staphylococcus aureus
[3] = system: Staphylococcus aureus MRSA (COL); assay: broth microdilution MIC assay, Staphylococcus aureus MRSA (COL); assay type: cell-based; conditions: for MIC: Staphylococcus aureus, MRSA
[4] = system: penicillin-, erythromycin- and tetracycline-resistant Streptococcus pneumoniae (ATCC 700677), ARSP; assay: microbe, parasite or virus in culture; assay type: cell-based; conditions: ATCC700677, MIC activity class, read-out: Antibacterial activity ARSP (multi-drug resistant-SP)
[5] = system: Staphylococcus epidermidis (PCI 1200, ATCC12228); assay: broth microdilution MIC assay, Staphylococcus epidermidis; assay type: cell-based; conditions: ATCC12228, read-out: Antibacterial activity SE (Staphylococcus epidermidis)
[6] = system: Bacillus subtilis (Marburg strain, ATCC6051); assay: microbe, parasite or virus in culture; assay type: cell-based; conditions: ATCC6051, read-out: Antibacterial activity BS (Bacillus substilis)
[7] = system: Human hepatocytes (HepaRG cells); assay: human cytotoxicity assay in vitro (CellTiter-Glo), hepatocytes; assay type: cell-based; conditions: cytotoxicity class
[8] = system: Mycobacterium smegmatis (mc(2)155, ATCC700084); assay: broth microdilution MIC assay, Mycobacterium smegmatis; conditions: MIC activity class
[9] = system: vancomycin-resistant Staphylococcus aureus; assay: broth microdilution MIC assay,  MRSA (COL); assay type: cell-based; conditions: read-out: MIC for the resistant strain
[10] = read-out: Antibacterial activity MSSA (Staphylococcus aureus MSSA)
[11] = read-out: Antibacterial activity MRSA (Staphylococcus aureus MRSA)
[12] = MIC100 class score, broth microdilution, 24 h
[13] = 24 h, read-out: Antibacterial activity Staphylococcus aureus (MSSA)
[14] = 24 h, read-out: Antibacterial activity Staphylococcus aureus (MRSA)

Question: For `FC(F)(F)Oc1ccccc1-c1ccc(-c2nc(-c3ccc(Cl)cc3Cl)c[nH]2)o1` [Compound 68], which “Antibacterial activity Streptococcus pneumoniae” value [1] is on record?
Answer: 2 (MIC100 of 6-10 μg/ml)

Question: What about the “Antibacterial activity Staphylococcus aureus (MSSA)” value ([2]; 24 h) of the same compound?
Answer: 2 (MIC100 of 11-201 μg/ml)

Question: And the MIC [2, 10]?
Answer: 11 to 201 µg/mL (≈ 25 to 458 µM)

Question: What about the MIC [3, 11] of the same compound?
Answer: 11 to 201 µg/mL (≈ 25 to 458 µM)

Question: And the MIC [4]?
Answer: 2 to 5 µg/mL (≈ 4.55 to 11.4 µM)

Question: And the MIC [5]?
Answer: 3 to 10 µg/mL (≈ 6.83 to 22.8 µM)

Question: What about the MIC [6] of the same compound?
Answer: 3 to 10 µg/mL (≈ 6.83 to 22.8 µM)

Question: And the “cytotoxicity cell line H (hepatocytes)” value [7]?
Answer: 2

Question: For `Cc1[nH]c(-c2ccc(-c3ccc(OC(F)(F)F)cc3Cl)o2)nc1-c1ccc(F)cc1` [Compound 51], which “Antibacterial activity Streptococcus pneumoniae” value [1] is on record?
Answer: 3 (MIC100 of 2-5 μg/ml)

Question: What about the “Antibacterial activity Staphylococcus aureus (MSSA)” value ([2]; 24 h) of the same compound?
Answer: 2 (MIC100 of 11-201 μg/ml)

Question: And the MIC [2, 10]?
Answer: 11 to 201 µg/mL (≈ 25.2 to 460 µM)

Question: What about the MIC [3, 11] of the same compound?
Answer: 20 to 50 µg/mL (≈ 45.8 to 114 µM)

Question: What about the MIC [4] of the same compound?
Answer: 2 to 5 µg/mL (≈ 4.58 to 11.4 µM)

Question: What about the MIC [5] of the same compound?
Answer: 20 to 50 µg/mL (≈ 45.8 to 114 µM)

Question: And the MIC [6]?
Answer: 3 to 10 µg/mL (≈ 6.87 to 22.9 µM)

Question: What about the “cytotoxicity cell line H (hepatocytes)” value [7] of the same compound?
Answer: 3

Question: Which “Antibacterial activity Staphylococcus aureus (MSSA)” value ([2]; 24 h) does the source give for `Cc1ccccc1-c1c[nH]c(-c2ccc(-c3ccccc3OC(F)(F)F)o2)n1` [Compound 66] here?
Answer: 3 (MIC100 of 3-10 μg/ml)

Question: And the MIC [2, 10]?
Answer: 3 to 10 µg/mL (≈ 7.81 to 26 µM)

Question: What about the “Antibacterial activity Staphylococcus aureus (MRSA)” value [3, 12] of the same compound?
Answer: 2 (MIC100 of 11-201 μg/ml)

Question: And the MIC [3, 11]?
Answer: 11 to 201 µg/mL (≈ 28.6 to 523 µM)

Question: What about the MIC [4] of the same compound?
Answer: 2 to 5 µg/mL (≈ 5.2 to 13 µM)

Question: What about the MIC [5] of the same compound?
Answer: 20 to 50 µg/mL (≈ 52 to 130 µM)

Question: What about the MIC [6] of the same compound?
Answer: 3 to 10 µg/mL (≈ 7.81 to 26 µM)

Question: What about the “cytotoxicity cell line H (hepatocytes)” value [7] of the same compound?
Answer: 3

Question: And the “Antibacterial activity MS (Mycobacterium smegmatis)” value (“Antibacterial activity MS” below) [8]?
Answer: 2 (MIC100 of 11-201 μg/ml)

Question: How did the MIC [9] turn out when `CN[C@H](CC(C)C)C(=O)N[C@H]1C(=O)N[C@@H](CC(N)=O)C(=O)N[C@H]2C(=O)N[C@H]3C(=O)N[C@H](C(=O)N[C@H](C(=O)O)c4cc(O)cc(O)c4-c4cc3ccc4O)[C@H](O)c3ccc(c(Cl)c3)Oc3cc2cc(c3O[C@@H]2O[C@H](CO)[C@@H](O)[C@H](O)[C@H]2O[C@H]2C[C@](C)(N)[C@H](O)[C@H](C)O2)Oc2ccc(cc2Cl)[C@H]1O` [vancomycin, Vancomycin] was run?
Answer: 20 µg/mL (≈ 13.8 µM)

Question: How did the MIC [2, 13] turn out when `Cc1[nH]c(-c2ccc(-c3cccc(F)c3C)o2)nc1-c1ccccc1` [Compound 60] was run?
Answer: 3 to 10 µg/mL (≈ 9.03 to 30.1 µM)

Question: What about the MIC [2, 10] of the same compound?
Answer: 3 to 10 µg/mL (≈ 9.03 to 30.1 µM)

Question: And the MIC [3, 14]?
Answer: 20 to 50 µg/mL (≈ 60.2 to 150 µM)

Question: What about the MIC [3, 11] of the same compound?
Answer: 20 to 50 µg/mL (≈ 60.2 to 150 µM)

Question: And the MIC [4]?
Answer: 2 to 5 µg/mL (≈ 6.02 to 15 µM)

Question: What about the MIC [5] of the same compound?
Answer: 20 to 50 µg/mL (≈ 60.2 to 150 µM)

Question: And the MIC [6]?
Answer: 3 to 10 µg/mL (≈ 9.03 to 30.1 µM)

Question: And the “cytotoxicity cell line H (hepatocytes)” value [7]?
Answer: 3

Question: And the “Antibacterial activity MS” value [8]?
Answer: 2 (MIC100 of 11-201 μg/ml)

Question: `Cc1nc(-c2ccc(-c3ccc(Cl)c(OC(F)(F)F)c3)o2)[nH]c1-c1ccc(F)cc1` [Compound 43] was tested. Which “Antibacterial activity Staphylococcus aureus (MSSA)” value ([2]; 24 h) did it give?
Answer: 3 (MIC100 of 3-10 μg/ml)

Question: And the MIC [2, 10]?
Answer: 3 to 10 µg/mL (≈ 6.87 to 22.9 µM)

Question: And the “Antibacterial activity Staphylococcus aureus (MRSA)” value [3, 12]?
Answer: 2 (MIC100 of 11-201 μg/ml)

Question: And the MIC [3, 11]?
Answer: 11 to 201 µg/mL (≈ 25.2 to 460 µM)

Question: And the MIC [4]?
Answer: < 1 µg/mL

Question: What about the MIC [5] of the same compound?
Answer: 20 to 50 µg/mL (≈ 45.8 to 114 µM)

Question: And the MIC [6]?
Answer: 3 to 10 µg/mL (≈ 6.87 to 22.9 µM)

Question: And the “cytotoxicity cell line H (hepatocytes)” value [7]?
Answer: 3

Question: `Cc1nc(-c2ccc(-c3ccc(Cl)cc3Cl)o2)[nH]c1-c1ccc(F)cc1` [Compound 16] was tested. Which “Antibacterial activity Streptococcus pneumoniae” value [1] did it give?
Answer: 3 (MIC100 of 2-5 μg/ml)

Question: And the MIC [2, 10]?
Answer: 1 to 3 µg/mL (≈ 2.58 to 7.75 µM)

Question: What about the MIC [3, 11] of the same compound?
Answer: 1 to 3 µg/mL (≈ 2.58 to 7.75 µM)

Question: What about the MIC [4] of the same compound?
Answer: < 1 µg/mL

Question: And the MIC [5]?
Answer: 3 to 10 µg/mL (≈ 7.75 to 25.8 µM)

Question: What about the MIC [6] of the same compound?
Answer: 3 to 10 µg/mL (≈ 7.75 to 25.8 µM)

Question: What about the “cytotoxicity cell line H (hepatocytes)” value [7] of the same compound?
Answer: 3

Question: With `Cc1nc(-c2ccc(-c3ccc(Cl)c(OC(F)(F)F)c3)o2)[nH]c1-c1ccccc1` [Compound 41] as the compound, how does the MIC [2, 13] read?
Answer: 3 to 10 µg/mL (≈ 7.16 to 23.9 µM)

Question: And the MIC [2, 10]?
Answer: 3 to 10 µg/mL (≈ 7.16 to 23.9 µM)

Question: And the MIC [3, 14]?
Answer: 3 to 10 µg/mL (≈ 7.16 to 23.9 µM)

Question: What about the MIC [3, 11] of the same compound?
Answer: 3 to 10 µg/mL (≈ 7.16 to 23.9 µM)

Question: What about the MIC [4] of the same compound?
Answer: < 1 µg/mL

Question: And the MIC [5]?
Answer: 11 to 201 µg/mL (≈ 26.3 to 480 µM)

Question: And the MIC [6]?
Answer: 3 to 10 µg/mL (≈ 7.16 to 23.9 µM)

Question: And the “cytotoxicity cell line H (hepatocytes)” value [7]?
Answer: 2

Question: Which results are given for `Cc1nc(-c2ccc(-c3ccc(Cl)cc3Cl)o2)[nH]c1-c1ccccc1` [Compound 1]?
Answer: MIC [2, 13]: 1 to 3 µg/mL (≈ 2.71 to 8.12 µM); MIC [2, 10]: 1 to 3 µg/mL (≈ 2.71 to 8.12 µM); MIC [3, 11]: 1 to 3 µg/mL (≈ 2.71 to 8.12 µM); MIC ([3]; MIC100 class score, broth microdilution, 24 h, read-out: Antibacterial activity Staphylococcus aureus (MRSA)): 1 to 3 µg/mL (≈ 2.71 to 8.12 µM); MIC [4]: < 1 µg/mL; MIC [5]: 3 to 10 µg/mL (≈ 8.12 to 27.1 µM); MIC [6]: 3 to 10 µg/mL (≈ 8.12 to 27.1 µM); cytotoxicity cell line H (hepatocytes) [7]: 2; Antibacterial activity MS (Mycobacterium smegmatis) [8]: 2 (MIC100 of 11-201 μg/ml)

Question: `Cc1ccccc1-c1cnc(-c2ccc(-c3ccccc3C(F)(F)F)o2)[nH]1` [Compound 69] was tested. Which “Antibacterial activity Staphylococcus aureus (MSSA)” value ([2]; 24 h) did it give?
Answer: 3 (MIC100 of 3-10 μg/ml)

Question: And the MIC [2, 10]?
Answer: 11 to 201 µg/mL (≈ 29.9 to 546 µM)

Question: What about the “Antibacterial activity Staphylococcus aureus (MRSA)” value [3, 12] of the same compound?
Answer: 2 (MIC100 of 11-201 μg/ml)

Question: And the MIC [4]?
Answer: 2 to 5 µg/mL (≈ 5.43 to 13.6 µM)

Question: What about the MIC [6] of the same compound?
Answer: 20 to 50 µg/mL (≈ 54.3 to 136 µM)

Question: And the “cytotoxicity cell line H (hepatocytes)” value [7]?
Answer: 2

Question: What about the “Antibacterial activity MS” value [8] of the same compound?
Answer: 2 (MIC100 of 11-201 μg/ml)

Question: For `FC(F)(F)Oc1ccccc1-c1ccc(-c2nc(Cl)c(-c3ccccc3)[nH]2)o1` [Compound 64], which “Antibacterial activity Staphylococcus aureus (MSSA)” value ([2]; 24 h) is on record?
Answer: 2 (MIC100 of 11-201 μg/ml)

Question: What about the MIC [2, 10] of the same compound?
Answer: 3 to 10 µg/mL (≈ 7.41 to 24.7 µM)

Question: What about the MIC [3, 11] of the same compound?
Answer: 20 to 50 µg/mL (≈ 49.4 to 124 µM)

Question: And the MIC [4]?
Answer: 2 to 5 µg/mL (≈ 4.94 to 12.4 µM)

Question: What about the MIC [5] of the same compound?
Answer: 20 to 50 µg/mL (≈ 49.4 to 124 µM)

Question: And the MIC [6]?
Answer: 20 to 50 µg/mL (≈ 49.4 to 124 µM)

Question: And the “cytotoxicity cell line H (hepatocytes)” value [7]?
Answer: 3

Question: `Cc1[nH]c(-c2ccc(-c3ccccc3OC(F)(F)F)o2)nc1Cc1ccc(Br)cc1` [Compound 30, 4-(4-Bromo-benzyl)-5-methyl-2-[5-(2-trifluoromethoxy-phenyl)-furan-2-yl]-1H-imidazole] was tested. Which “Antibacterial activity Staphylococcus aureus (MSSA)” value ([2]; 24 h) did it give?
Answer: 3 (MIC100 of 3-10 μg/ml)

Question: And the MIC [2, 10]?
Answer: 3 to 10 µg/mL (≈ 6.29 to 21 µM)

Question: What about the MIC [3, 11] of the same compound?
Answer: 3 to 10 µg/mL (≈ 6.29 to 21 µM)

Question: And the MIC [4]?
Answer: < 1 µg/mL

Question: And the MIC [5]?
Answer: 11 to 201 µg/mL (≈ 23 to 421 µM)

Question: What about the MIC [6] of the same compound?
Answer: 3 to 10 µg/mL (≈ 6.29 to 21 µM)

Question: What about the “cytotoxicity cell line H (hepatocytes)” value [7] of the same compound?
Answer: 3
